Data on 2 molecules can be found in US12252531B2, “Methods of screening for high-affinity, isoform-selective TGFβ1 inhibitors” (Scholar Rock, Inc., priority 2018, dated 2025).

Data set [1] can be described thus: Safety/toxicology study in rats. The note with it: rat, in vivo. From the text:
Animals were sacrificed on Day 29 and necropsies performed.
Both halves were submitted for embedding.

Data set [2] has as its system TGFβ downstream tonic signaling. The note with it: non-diseased rat BAL; cited from earlier work.
The test system of data set [3] is intratumoral immune cells in MBT2 tumors. The data set can be described thus: MBT2 tumor immune contexture (flow cytometry, IHC, qPCR). Format: in vivo, mouse. As to conditions: MBT2 tumors (FIG. 30F). How it is done:
Each study group contained 12 mice with MBT2 tumors as described herein. Ab6-treatment group received the antibody weekly, on day 1 and day 8, at 10 mg/kg. Anti-PD1 treatment group was treated biweekly at 10 mg/kg per injection, on days 1, 4, 8 and 11, total of 20 mg/kg per week. […] On day 13, tumors were collected from the mice as shown above.
Flow cytometric analysis: Tumor-associated immune cell subsets were also analyzed by tumor flow cytometry in MBT-2 tumors. Briefly, tumors were excised and weighed prior to dissociation using the Tumor Dissociation Kit for gentleMACS (Miltenyi). Samples were filtered through a 70 μm cell strainer to remove any aggregates. […] Flow cytometry was performed on a Attune NxT (ThermoFisher) and analyzed with FlowJo (BD Bioscience).
For immunohistochemical analysis, tumors from six animals were cut in halves and fixed. […] FIG. 30E provides the quantitation of the IHC data, shown as % of CD8-positive cells of total nuclei. […]
(Flow cytometry measures light scatter and fluorescence of single cells or particles in a stream.)

In the case of `c1ccc(-c2nn3c(c2-c2ccnc4cc(OCCN5CCOCC5)ccc24)CCC3)nc1` [LY2109761], the bone findings result in data set [1] was “macroscopic abnormally shaped sternum and microscopic increased thickness of the hypertrophic zone in the endplate of the sternum and physis of the femur and tibia”. Besides, the “incidence/severity of bone findings compared with pan-TGFβ antibody” value in data set [1] (po) is reported as “higher incidence and/or severity”. Also, the “inhibition of TGFβ downstream tonic signaling” value in data set [2] is “shown to inhibit TGFβ downstream tonic signaling”.

B1: Ab6-mIgG1: chimeric antibody with the human V domains of Ab6 fused to mouse IgG1/kappa constant domains (protein)
heavy chain: EVQLVESGGGLVQPGGSLRLSCTASGFTFSSFSMDWVRQAPGKGLEWVSYISPSADTIYYADSVKGRFTISRDNAKNTLYLQMNSLRAEDTAVYYCARGVLDYGDMLMPWGQGTLVTVSS
light chain: DIQMTQSPSSLSASVGDRVTITCQASQDITNYLNWYQQKPGKAPKLLIYDASNLETGVPSRFSGSGSGTDFTFTISSLQPEDIATYYCQQADNHPPWTFGGGTKVEIK
With B1, the “phospho-SMAD3 staining near tumor vascular endothelium (IHC)” value in data set [3] is recorded as “much diminished”.
